Experimental data reported in patent US8034795B2, “Taxanes covalently bounded to hyaluronic acid or hyaluronic acid derivatives” (Fidia Farmaceutici S.p.A., priority 2002, dated 2011).

How the values were obtained:
[1] = tested on: SKBR-3 human breast cancer cell line; test: In vitro cytotoxicity, MTT test, SKBR-3; assay type: cell-based; settings: SK-BR-3, 72 h, read-out: IC50 (concentration of drug necessary to inhibit cell growth by 50%)
Description: (§1) Four cell lines of human breast cancer were used.
(§2) 1) the test cell line is plated at a concentration of 3,000 cells per well, on a flat-bottomed, 96-well plate;
(§3) 2) 24 hours later, the cells are supplemented with the test solutions suitably diluted in culture medium;
(§4) This is possible because mitochondrial dehydrogenase is able to reduce the tetrazolium salts (yellow) into blue formazan crystals. The greater or lesser intensity of colour is assessed by spectrophotometry (Dezinot, F. et al., J. Immunol. Methods, 1986, 22 (89): 271-277).

[2] = tested on: MCF-7 human breast cancer cell line; test: In vitro cytotoxicity, MTT test, MCF-7; assay type: cell-based; settings: MCF7, 72 h, read-out: IC50 (concentration of drug necessary to inhibit cell growth by 50%)
Description: as §1, §2, §3, §4

[3] = intravenous infusion of paclitaxel-Cremophor EL in spite of pre-medication; cited from earlier work
[4] = tested on: MDA-MB-231 human breast cancer cell line; test: In vitro cytotoxicity, MTT test, MDA-MB-231; assay type: cell-based; settings: MDA-MB-231, 72 h, read-out: IC50 (concentration of drug necessary to inhibit cell growth by 50%)
Description: as §1, §2, §3, §4

[5] = tested on: human ovary adenocarcinoma cells, OVCAR-3 cells; test: Survival of nude mice after intraperitoneal implant of OVCAR-3 neoplastic cells; assay type: in vivo, immunodepressed nude mice (Athymic CD-1); settings: 3 intraperitoneal doses (days 6, 13, 20): 20 mg/kg Taxol or 125 mg/kg HYTAD; 5 animals per group
Excerpt: For this experiment, we used human ovary adenocarcinoma cells, OVCAR-3 cells, in immunodepressed nude mice belonging to the Athymic CD-1 species.
Each mouse was inoculated by the intraperitoneal route with 5×10^6 cancer cells.
The molecular weight of the HA used for synthesis of this new drug was 200,000 Da (see Example 7 for details of its preparation). Five animals were used for this drug too.
Treated animals: 10 animals were first inoculated with OVCAR-3 cells.
The survival curve was calculated from the date of intervention to the 92nd day after inoculation of the cancer cells into the peritoneum.

SMILES: CC(=O)O[C@H]1C(=O)[C@@]2(C)[C@H]([C@H](OC(=O)c3ccccc3)[C@]3(O)C[C@H](OC(=O)[C@H](O)[C@@H](NC(=O)c4ccccc4)c4ccccc4)C(C)=C1C3(C)C)[C@]1(OC(C)=O)CO[C@@H]1C[C@@H]2O [Taxol ®, paclitaxel]
- IC50 [1]: 0.23 nM
- IC50 [2]: 3.5 nM
- patients who experience more or less severe adverse reactions [3]: up to 40%
- IC50 [4]: 0.35 nM
- animals that had died on the 92nd day after intervention [5]: none
